ChEMBL document CHEMBL1201862, “PubChem BioAssay data set” (2004)
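Grown in 96-well plates, cells were treated for 48 hours with each compound at five concentrations. Insufficient inhibition: endpoint recorded as highest concentration tested. GI50 is the concentration that inhibits growth by half.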 Calls of active or inactive are those of the source. Cut-off read from the data, not from the text of the source: active = GI50 up to about 1.1 µM and inactive = higher.

How the values were obtained:
Experiment in all cases: NCI anticancer screen, dose series, 48 h
MDA-N = tested on: MDA-N
K562 = tested on: K562
UACC-257 = tested on: UACC-257
MDA-MB-435 = tested on: MDA-MB-435
OVCAR-8 = tested on: OVCAR-8
CCRF-CEM = tested on: CCRF-CEM
NCI-H522 = tested on: NCI-H522
HCT-116 = tested on: HCT-116
ACHN = tested on: ACHN
MOLT-4 = tested on: MOLT-4
HL-60 = tested on: HL-60
DU-145 = tested on: DU-145
OVCAR-4 = tested on: OVCAR-4
MDA-MB-231 = tested on: MDA-MB-231
UO-31 = tested on: UO-31
RXF 393 = tested on: RXF 393
HOP-92 = tested on: HOP-92
NCI/ADR-RES = tested on: NCI/ADR-RES
Hs-578T = tested on: Hs-578T
SNB-75 = tested on: SNB-75
NCI-H226 = tested on: NCI-H226
U-251 = tested on: U-251
LOX IMVI = tested on: LOX IMVI
A498 = tested on: A498
SF-268 = tested on: SF-268
HCT-15 = tested on: HCT-15
OVCAR-3 = tested on: OVCAR-3
COLO 205 = tested on: COLO 205
SW-620 = tested on: SW-620
T47D = tested on: T47D
TK-10 = tested on: TK-10
PC-3 = tested on: PC-3
SK-MEL-5 = tested on: SK-MEL-5
HT-29 = tested on: HT-29
SNB-19 = tested on: SNB-19
SN12C = tested on: SN12C
KM12 = tested on: KM12
M14 = tested on: M14
A549 = tested on: A549
MCF7 = tested on: MCF7
NCI-H23 = tested on: NCI-H23
NCI-H460 = tested on: NCI-H460
HCC 2998 = tested on: HCC 2998
SF-295 = tested on: SF-295
OVCAR-5 = tested on: OVCAR-5
EKVX = tested on: EKVX
HOP-62 = tested on: HOP-62
SK-MEL-2 = tested on: SK-MEL-2
SK-OV-3 = tested on: SK-OV-3
CAKI-1 = tested on: CAKI-1
SF-539 = tested on: SF-539
SR = tested on: SR
Malme-3M = tested on: Malme-3M
RPMI-8226 = tested on: RPMI-8226
SK-MEL-28 = tested on: SK-MEL-28
UACC-62 = tested on: UACC-62
786-0 = tested on: 786-0
IGROV-1 = tested on: IGROV-1

Measured: GI50

Nc1ncnc2c1cnn2Cc1ccc(Cl)cc1
inactive: MDA-N > 100 µM | K562 > 100 µM | UACC-257 > 100 µM | MDA-MB-435 > 100 µM | OVCAR-8 > 100 µM | CCRF-CEM > 100 µM | NCI-H522 92 µM | HCT-116 > 100 µM | ACHN > 100 µM | MOLT-4 > 100 µM | HL-60 > 100 µM | DU-145 > 100 µM | OVCAR-4 > 100 µM | MDA-MB-231 > 100 µM | UO-31 78.5 µM | RXF 393 > 100 µM | HOP-92 > 100 µM | NCI/ADR-RES 83 µM | Hs-578T > 100 µM | SNB-75 48.4 µM | NCI-H226 > 100 µM | U-251 > 100 µM | LOX IMVI > 100 µM | SF-268 > 100 µM | OVCAR-3 > 100 µM | COLO 205 > 100 µM | SW-620 > 100 µM | T47D > 100 µM | TK-10 > 100 µM | PC-3 > 100 µM | SK-MEL-5 > 100 µM | HT-29 > 100 µM | SNB-19 > 100 µM | SN12C > 100 µM | KM12 > 100 µM | M14 > 100 µM | A549 > 100 µM | MCF7 > 100 µM | NCI-H23 > 100 µM | NCI-H460 > 100 µM | HCC 2998 > 100 µM | SF-295 > 100 µM
> 100 µM: HCT-15
active: A498 0.445 µM

CC1CC(C)C(C#N)N(C)c2ccccc21 (stereo not drawn)
inactive: MDA-N > 100 µM | K562 87.9 µM | UACC-257 > 100 µM | MDA-MB-435 69.2 µM | OVCAR-5 > 100 µM | OVCAR-8 > 100 µM | CCRF-CEM 51.8 µM | HCT-116 36.5 µM | ACHN > 100 µM | EKVX > 100 µM | MOLT-4 66.7 µM | HL-60 26.7 µM | HOP-62 > 100 µM | SK-MEL-2 > 100 µM | DU-145 > 100 µM | OVCAR-4 > 100 µM | SK-OV-3 > 100 µM | MDA-MB-231 > 100 µM | CAKI-1 > 100 µM | UO-31 > 100 µM | RXF 393 6.12 µM | NCI/ADR-RES > 100 µM | Hs-578T > 100 µM | SNB-75 > 100 µM | SF-539 > 100 µM | SR 25.6 µM | Malme-3M > 100 µM | NCI-H226 > 100 µM | A498 > 100 µM | SF-268 > 100 µM | OVCAR-3 > 100 µM | COLO 205 > 100 µM | SW-620 > 100 µM | T47D > 100 µM | TK-10 > 100 µM | PC-3 > 100 µM | SK-MEL-5 37.7 µM | HT-29 78.3 µM | RPMI-8226 37.2 µM | SK-MEL-28 > 100 µM | SNB-19 > 100 µM | SN12C > 100 µM | KM12 > 100 µM | M14 > 100 µM | A549 > 100 µM | UACC-62 97.5 µM | 786-0 > 100 µM | MCF7 81.3 µM | NCI-H23 > 100 µM | NCI-H460 > 100 µM | HCC 2998 > 100 µM | IGROV-1 > 100 µM | SF-295 > 100 µM
> 100 µM: HCT-15
